pEC50, pIC50: −log10 of the molar value.
How the values were obtained:
hnRNP A18 RRM = molecular target: T1, hnRNP A18 RRM (Homo sapiens, UniProt Q14011); test: NMR HSQC/TROSY chemical shift perturbation screen; type: binding; settings: 150 μM hnRNP A18, excess compound, 298 K
T1 construct: A18 RNA recognition motif (residues 1-92 of hnRNP A18 wildtype) was expressed and purified; 6x-His (N, cleaved yes); protein G B1 domain (GB1) (N, cleaved yes); made in house; host or cells: E. coli BLD21(DE3) (so in the source)
Method: The hnRNP A18 RRM samples used for compound screening via high field NMR spectroscopy using a series of single-quantum coherence (HSQC) experiments contained 0.1 to 0.2 mM ^15N-labeled hnRNP A18 RRM, ultrapure water, 10% D2O, 5% d6-DMSO and up to 5 mM of each of the forty compounds tested, as based on their solubility. All of the HSQC data were collected at 25° C. with a Bruker Avance 800 US2 NMR spectrometer (800.27 MHz, ^1H) equipped with pulsed-field gradients, four frequency channels, an automatic sample changer, and a TXI cryogenic probe. Backbone resonance assignments in the presence of compounds were achieved via compound titrations and monitoring chemical shift changes until solubility limits were reached (<5 mM compound). Data were processed with NMRPipe (35), and proton chemical shifts and their perturbations upon binding the various compounds were reported with respect to the H2O or HDO signal taken as 4.698 ppm relative to external TSP (0.0 ppm).

[1] = test system: Iron Responsive Protein (IRP); test: RNA band shift (EMSA) with Iron Responsive Protein and Iron Responsive Element (specificity); type: binding; settings: very high concentration, decreased specificity
hnRNP A18 [2] = molecular target: T2, hnRNP A18 (Homo sapiens, UniProt Q14011); test: RNA band shift (EMSA) with His-hnRNP A18 and biotinylated hnRNP A18 RNA motif 1; type: binding; parameters: recombinant full length His-hnRNP A18 incubated with biotinylated hnRNP A18 RNA motif 1; settings: increasing concentrations of compound
T2 sequence (Q14011 1-172): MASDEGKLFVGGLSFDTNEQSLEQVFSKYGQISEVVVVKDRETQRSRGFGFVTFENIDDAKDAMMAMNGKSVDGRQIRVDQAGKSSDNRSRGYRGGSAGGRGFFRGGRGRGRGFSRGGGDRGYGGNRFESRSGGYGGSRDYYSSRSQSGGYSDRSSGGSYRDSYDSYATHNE
Method: RNA band shifts were performed according to the manufacturer recommendations (LightShift Chemiluminescent RNA EMSA kit, Thermo Scientific, Rockford, Ill.). Briefly recombinant His-hnRNP A18 or His-hnRNP A1 (1 μg) were incubated with biotinylated RNA (hnRNP A18 motif 1, IRE 28 or 51 nucleotides) in 20 μl and run on native polyacrylamide gels transfer to nylon probes and hybridize with streptavidin HRP antibody.

hnRNP A18 [3] = molecular target: T2, hnRNP A18; test: Fluorescence anisotropy competition binding of hnRNP A18 to fluorescein tagged RNA motif 1; parameters: recombinant full length His-hnRNP A18 incubated with biotinylated hnRNP A18 RNA motif 1; settings: 25° C., 30 min, read-out: IC50, inhibition of hnRNP A18 binding to its cognate RNA
Method: Quantitative assessments of hnRNP A18-RNA binding equilibria were performed using fluorescence anisotropy essentially as described (36). Briefly, binding reactions (100 μl) were assembled as described for RNA band shift (EMSAs) but in absence of glycerol and using fluorescein labeled rather than biotin labeled RNA substrates. Reactions were incubated at 25° C. for 30 min; preliminary kinetics runs verified that equilibrium was attained within this period. Subsequently, total reaction anisotropy (At) and fluorescence intensity were measured using a Beacon 2000 Fluorescence Polarization System (Panvera) equipped with a 490-nm excitation filter and a 535-nm emission filter. Drug-dependent changes in At were analyzed by nonlinear regression using the four parameter logistic equation (Eq.1) and PRISM software (GraphPad).
Here, APR represents the intrinsic anisotropy of the protein:RNA complex in the absence of tested compounds, AR is the anisotropy of the RNA ligand in the absence of protein, [drug] is the concentration of each tested compound, and h is the Hill slope.

[4] = test system: normal human mammary epithelial cells (HMEC); test: Cell viability of normal human mammary epithelial cells (Apo-Tox-Glo); type: cell-based; settings: 24 hrs; for Effect on normal cells viability: Compounds 2 and 3 at doses as high as 150 μM
Method: (§1) Cell Viability and Tumor Growth In Vivo
(§2) Cells viability was measured on normal human mammary epithelial cells (HMEC: ATCC, Gaithersburg, Md.) grown as recommended by the manufacturer and human cancer cells including melanoma LOX-IM-VI, colon cancer RKO, Gliobalstoma D54, pancreatic cancer MiaPaca and triple negative breast cancer MDA-MD-231 cells (5) with the Apo-Tox-Glo kit (Promega, Madison, Wis.) as recommended by the manufacturer. The cells were plated (10,000 cells per well) on a 96 well plate and exposed to increasing concentration of chemical probes for 24 hrs and reacted with the viability reagent as recommended. Fluorescence was measured on a plate reader at 400 nm Ex/505 nm Em.

hnRNP A18 [5] = molecular target: T2, hnRNP A18; test: Cellular Engagement Thermal Shift Assay (CETSA) in LOX-IM-VI cells; type: cell-based; parameters: expressed in transfected cells; host or cells: LOX-IM-VI human melanoma cells stably transfected with hnRNP A18-GFP; settings: 3 hours, heat shock at Tagg(75), read-out: EC50, binding and stabilization of hnRNP A18 in cells
Method: Cellular Thermal Shift Assay (CETSA)
Cellular thermal shift assay (CETSA) was performed with LOX-IM-VI hnRNP
A18 cells cultured in RPMI medium supplemented with 10% FBS. For an initial determination of the melting profile of hnRNP A18, cells dispensed into 96-well PCR plate in the above medium (5000 cells/well/50 μl), were subjected to temperature gradient (40-60° C.) for 10 min. Cold non-denaturing lysis buffer (PBS supplemented with 0.1% TritonX-100 and 1× protease inhibitors) was added to wells, and the plate was rocked and incubated for 15 min on ice. Subsequently, centrifugation was performed at 14.000 rpm to sediment the unstable protein content. Supernatant was collected, and SDS-PAGE gel was run, and immuno-detection was performed using poly-clonal anti-hnRNP A18 antibody (Sigma, CIRP). hnRNP A18 band was quantified on LI-COR C-Digit Blot Scanner, and subsequently Tagg(50) and Tagg(75) values were calculated for hnRNP A18.
In a subsequent run, cells were treated at various doses (80, 40, 20, 10, 5, 2.5 and 1.25 μM) of Compound 2 (Chembridge 7646184), Compound 4 (OTAVA 219853) and Compound 5 (VITAS STK508411) together with DMSO control, for 3 hours. Cells were then subjected to heat shock at Tagg(75) for 10 min, and unstable protein was removed by centrifugation step. Following an immuno-blotting step, bands of stable hnRNP A18 protein was quantified, normalized to loading control and plotted using GraphPad Prism software. EC50 values of Compound 2, Compound 4 and Compound 5 compounds were calculated.

[6] = PAMPA (parallel artificial membrane permeability assay); type: in vitro ADME; settings: measured at pH 5.0 and 6.8, room temperature, ~4 hours, read-out: Effective permeability Pe
Method: The PAMPA assay was performed by Pion (Billerica, Mass.) on 81 compounds selected out of the 264 compounds showing at least 80% similarity to Compound 1, logP<5.0, and 4DBA closer to 0 (>−4.9). The compounds were dissolved at 10 mM in Dimethyl sulfoxide (DMSO, spectrophotometric grade) and filtered (0.2 μm pore size, hyrodophylic PVDF). The assays were carried in the PAMPA STIRWELL plates (lot A0440) and measured at pH 5.0 and 6.8 at room temperature for ˜4 hours on a PAMPA EVOLUTION instrument.

[7] = test system: melanoma LOX-IM-VI, colon cancer RKO, Glioblastoma D54, pancreatic cancer MiaPaca, MDA-MD-231 cells; test: Cell viability of human cancer cells (Apo-Tox-Glo); type: cell-based; settings: 24 hrs, increasing concentration
Method: as §1, §2

Aqueous solubility = type: physicochemical
[8] = test system: hnRNP A18 targeted 3'UTR (Trx); test: CAT-Trx 3'UTR reporter assay (CAT ELISA) in LOX-IM VI cells; type: cell-based, human; settings: increasing amounts of drugs, next day
Method: CAT-ELISA was performed as recommended by the manufacturer (Sigma-Aldrich). Briefly, human melanoma LOX-IM VI cells stably transfected with hnRNP A18-GFP (9) were transiently transfected with a CAT reporter vector harboring Trx 3′UTR (16). Twenty-four hours later the cells were distributed in 6 well plates and treated with increasing amounts of drugs. The next day, the cells were washed, and protein extracted. […] Cleavage of the substrate catalyzed by the peroxidase enzyme was measured on a plate reader at 405 nm.
In order to determine whether hnRNP A18 binding to these compounds disrupted its cellular functions, a cell-based assay was developed as a read out for hnRNP A18 RNA binding activity. A reporter vector harboring a hnRNP A18 targeted 3′UTR (Trx; (16)) downstream of a CAT gene was engineered. Binding of hnRNP A18 to the targeted 3′UTR is expected to stabilize the CAT transcript and increase CAT protein production, which is then measured by ELISA.

Structure (SMILES)	Chemical shift perturbations of hnRNP A18 RRM residues (hnRNP A18 RRM)	Concentration at which binding disruption of IRP to Iron Responsive Element was observed [1]	Disruption of hnRNP A18 RNA binding activity by band shift (hnRNP A18 [2])	pIC50 (hnRNP A18 [3])	Effect on normal cells viability [4]	pEC50 (hnRNP A18 [5])	Papp [6]	Effect on cancer cells viability [7]	Toxicity to normal cells [4]	Aqueous solubility (Aqueous solubility)	Production of CAT protein [8]
Cc1nc(NC(=O)c2ccccc2)sc1-c1csc(Nc2ccc(O)c(C(=O)O)c2)n1 [Compound 1]	most significant chemical shift perturbations	5.5 mM	out-competed hnRNP A18 RNA consensus motif	5.19	–	–	–	–	–	–	–
CC(=O)Oc1ccccc1C(=O)Nc1ccccc1Sc1ncnc2scc(-c3ccccc3)c12 [Compound 2]	–	–	specifically disrupt hnRNP A18 RNA binding activity	4.82	without affecting the viability of normal human epithelial cells	5.33	> 20 ×10⁻⁶ cm/s	killing all cancer cell lines tested	–	–	–
CC(=O)Oc1cccc(C(=O)Nc2ccc(C(=O)Nc3nccs3)cc2)c1 [Compound 3]	–	–	specifically disrupt hnRNP A18 RNA binding activity	4.89	without affecting the viability of normal human epithelial cells	–	> 20 ×10⁻⁶ cm/s	killing all cancer cell lines tested	–	–	–
COc1ccccc1C(=O)Nc1nc(-c2ccc(C)cc2)c(NC(C)=O)s1 [Compound 4]	–	–	specifically disrupt hnRNP A18 RNA binding activity	4.41	no significant effect on normal cells viability	5.57	> 20 ×10⁻⁶ cm/s	preferentially killing cancer cells although less efficiently than Compounds 2 and 3	–	–	–
Cc1sc(NC(=O)c2ccccc2)nc1OC(=O)c1ccccc1 [Compound 5]	–	–	specifically disrupt hnRNP A18 RNA binding activity	5.54	–	4.62	> 20 ×10⁻⁶ cm/s	least effective	20-40%	–	–
COc1cccc(C(=O)Nc2nc(-c3ccc(C)cc3)c(NC(=O)c3ccco3)s2)c1 [Compound 6]	–	–	specifically competed for hnRNP A18 binding activity	–	–	–	–	–	–	Low aqueous solubility	could only reduce CAT protein levels at the highest concentration
